ChEMBL document CHEMBL1135889, “Novel 4-anilinoquinazolines with C-7 basic side chains: design and structure activity relationship of a series of potent, orally active, VEGF receptor tyrosine kinase inhibitors” (J Med Chem, 2002)

How the values were obtained:
[1] = Pharmacokinetic parameter bioavailability in rat was reported after oral administration of 50 mg/Kg measured on free base; type: ADME, organism-based; conditions: in vivo
[2] = Plasma levels following administration of 50 mg/Kg perorally and concentration of compound in plasma 24 hr after administration; type: ADME, cell-free; conditions: po, read-out: Plasma level
[3] = solubility was determined using free base at pH 7.4; type: physicochemical; conditions: buffer
[4] = pKa value at a pH of […].value ranges from […]-[…].; type: physicochemical; conditions: pH 7.4
HUVEC = test: Inhibition of basal unstimulated growth of human endothelial cell; type: functional, cell-based
Mus musculus [5] = test: Inhibition of Established Calu-6 tumor xenografts implanted subcutaneously in athymic mice measured after 21 days of dosing of […] mg/kg perorally.; type: functional; conditions: Calu-6, 504 h, route oral
Mus musculus [6] = test: Inhibition of Established Calu-6 tumor xenografts implanted subcutaneously in athymic mice measured after 21 days of dosing of 50 mg/kg perorally.; type: functional; conditions: Calu-6, 504 h, route oral
Mus musculus [7] = test: Inhibition of Established Calu-6 tumor xenografts implanted subcutaneously in athymic mice measured after 21 days of dosing of 12.5 mg/kg perorally.; type: functional; conditions: Calu-6, 504 h, route oral
[8] = Plasma levels following administration of 50 mg/Kg perorally and concentration in plasma 6 hr after administration; type: ADME, cell-free; conditions: po, read-out: Plasma level
Mus musculus [9] = test: Inhibition of Calu-6 tumor xenografts implanted subcutaneously in athymic mice measured after 21 days of dosing of 100 mg/kg perorally.; type: functional; conditions: Calu-6, 504 h, route oral
physchem = conditions: octanol/water, pH 7.4
[10] = Pharmacokinetic parameter half-life in dog was reported after intravenous administration of 5 mg/Kg measured on free base; conditions: in vivo
[11] = Pharmacokinetic parameter bioavailability in dog was reported after oral administration of 25 mg/Kg measured on free base; conditions: in vivo
[12] = Pharmacokinetic parameter half-life in rat was reported after intravenous administration of 5 mg/Kg measured on free base; conditions: in vivo

bioavailability [1]: > 50%
concentration at 24 h [2]: 3 µM
solubility [3]: 330 µM
pKa [4]: 9.4
concentration at 6 h [8]: 5.5 µM
logD (physchem): 2.6
half-life [10]: 8.3 h
bioavailability [11]: > 50%
half-life [12]: 15 h
SMILES: COc1cc2c(Nc3ccc(Br)cc3F)ncnc2cc1OCC1CCN(C)CC1.Cl
IC50 (HUVEC): > 3000 nM
inhibition in vivo at 25 mg/kg (Mus musculus [5]): 51%
inhibition in vivo at 50 mg/kg (Mus musculus [6]): 67%
inhibition in vivo at 12.5 mg/kg (Mus musculus [7]): 36%
inhibition in vivo at 100 mg/kg (Mus musculus [9]): 79%
